{
  "source": "patent US8075921B2",
  "about": "“Rapamycin-resistant T cells and therapeutic uses thereof” (The United States of America as represented by the …, priority 2001, dated 2011)",
  "key": {"[1]": {"test_system": "naïve human CD4 cells", "experiment": "Co-stimulated expansion of flow-sorted naïve CD4 cells with or without rapamycin", "assay_type": "cell-based", "details": "in rapamycin relative to control culture", "excerpt": "(§1) To this extent, naïve or memory human CD4 cells were purified by flow sorting, and co-stimulated either with or without rapamycin (results in FIG. 31)."}, "[2]": {"test_system": "memory CD45RO^+ sorted cells", "experiment": "Co-stimulated expansion of flow-sorted memory CD4 cells with or without rapamycin", "assay_type": "cell-based, human", "details": "in rapamycin relative to control culture", "excerpt": "as §1"}},
  "data": [
    {"smiles": "CO[C@H]1C[C@@H]2CC[C@@H](C)[C@@](O)(O2)C(=O)C(=O)N2CCCC[C@H]2C(=O)O[C@H]([C@H](C)C[C@@H]2CC[C@@H](O)[C@H](OC)C2)CC(=O)[C@H](C)/C=C(\\C)[C@@H](O)[C@@H](OC)C(=O)[C@H](C)C[C@H](C)/C=C/C=C/C=C/1C", "note": "[rapamycin]", "values": [
      {"measurement": "reduction in CD4 yield", "setting": "[1]", "result": "~25", "unit": "%"},
      {"measurement": "reduction in CD4+ T cell expansion", "setting": "[2]", "result": "~50", "unit": "%"}
    ]}
  ]
}
